Patent US12570612B2, “Substituted nitrogen heterocyclic compound and anesthetic effect thereof” (priority 2019, dated 2026)
Entries after “also recorded” stand apart in the source; their conditions may differ. Like-named read-outs stand apart in the source and are kept apart here.

Assays:
H295R cell line [1] = assay: Adrenocortical function in vitro test: secretion of cortisol and corticosterone, Group A compounds; format: cell-based; conditions: H295 cells; for EC50: Homo sapiens, 0.1-10000 nM, HPLC-MS/MS
Sprague-Dawley rats [2] = assay: Pharmacological effect and adverse reactions under the equivalent dose (2ED50), Group D compounds; format: in vivo; conditions: rat, in vivo
Source text: (§1) Evaluation index: onset time: from the completion of drug injection to the disappearance of forepaw righting reflex in rats; Duration of anesthesia: the time from the disappearance of rat forepaw righting reflex to the recovery of rat forepaw righting reflex; Recovery time of anesthesia: the time from the […] to complete recovery;

Sprague-Dawley rats [3] = assay: animal or person; format: in vivo
Source text: Evaluating indicator: The end point of anesthesia: the disappearance of forepaw righting reflex (lorr) was used as the end point of anesthesia; General anesthesia effect: the disappearance of forepaw righting reflex in rats lasting for 30 seconds is taken as the index of general anesthesia effect; Anesthesia recovery index: the recovery of rat forepaw righting reflex was used as the index of anesthesia recovery.

Sprague-Dawley rats [4] = assay: Pharmacological effect and adverse reactions under the equivalent dose (2ED50), Group C compounds; format: in vivo; conditions: rat, in vivo
Source text: as §1

H295R cell line [5] = assay: Adrenocortical function in vitro test: secretion of cortisol and corticosterone, Group B compounds; format: cell-based; conditions: H295R cells; for EC50: Homo sapiens, NCI-H295R, 0.1-10000 nM, HPLC-MS/MS
[6] = system: circulatory function of rats; assay: Circulatory function of rats (MAP, HR) by implanted telemetry, Group C compounds; conditions: 2ED50, rats, FIG. 13-16
Source text: (§3) First, the animal model was established, and the left ventricular catheter, abdominal aorta catheter and electrocardiogram wire were placed. At least one week after the operation, the signal can be collected to start the test. At the beginning of the experiment, after the placement of the indwelling needle in the tail vein of rats, connect the extension tube, put the rats together with the feeding cage on the signal receiver and start collecting data. […] All compounds or drugs were given at a constant volume of 0.6 ml at a uniform rate of 0.1 ml/s.

[7] = system: circulatory function of rats; conditions: rat, in vivo
[8] = system: circulatory function of rats; assay: Circulatory function of rats (MAP, HR) by implanted telemetry, Group D compounds; conditions: 2ED50, rats, FIG. 19-22
Source text: as §3
Evaluation indexes: Collect the blood pressure, heart rate and other data of rats during and 15 minutes after administration, and judge the effect of the compound of the invention on the circulatory function of rats with the indexes of mean arterial pressure (MAP) and heart rate (HR).

Sprague-Dawley rats [9] = assay: animal or person
Protocol: (§2) Adult male Sprague-Dawley rats (250-300 g) were selected for the experiment. […] The anesthesia effects of the compounds were assessed in rats using a LORR assay and a period >30 s was considered as an indicator of general anesthesia.

Sprague-Dawley rats [10] = assay: animal or person; remark: listed apart in the source
Protocol: as §2

Sprague-Dawley rats [11] = assay: animal or person; format: in vivo; remark: listed apart in the source
Source text: Evaluating indicator: The end point of anesthesia: LORR was used as the end point of anesthesia; General anesthesia effect: the disappearance of forepaw righting reflex in rats lasting for 30 seconds is taken as the index of general anesthesia effect; Anesthesia recovery index: the recovery of rat forepaw righting reflex was used as the index of anesthesia recovery.

[12] = system: circulatory function of rats; conditions: rat, in vivo; remark: listed apart in the source
Protocol: First, animal models were established. […] At least one week after surgery, data were recorded.
Finally, the pharmacological effects, adverse reactions, and behavioral manifestations of the rats were observed and recorded
After data acquisition, the test was stopped.

Sprague-Dawley rats [13] = assay: Pharmacological characteristics at equivalent doses (2ED50), Group A compounds; format: in vivo; conditions: 2ED50, tail vein
[14] = read-out: EC50 (Corticosterone)
[15] = male, Sprague-Dawley, rat, in vivo

## CC(C)c1cccc(C(C)C)c1O [Propofol, propofol, reference compound]
H295R cell line [1]
  Corticosterone as an indicator to determine the presence of inhibition: 0
  Cortisol as an indicator to determine the presence of inhibition: 0
H295R cell line [1]; [14]
  EC50: > 10 µM
H295R cell line [1]; read-out: EC50 (Cortisol)
  EC50: > 10 µM
Sprague-Dawley rats [2]
  Adverse reaction: Convulsions: 0
  Adverse reaction: Cough, broken-winded: 0
  Adverse reaction: Euphoria: 0
  Adverse reaction: Four limbs rigidity: 1
  Adverse reaction: Slower breathing, Tetany convulsion: 2
  Adverse reaction: Systemic stiffness, Convulsions, Opisthotonus: 0
  Adverse reaction: Tongue stretching: 0
  Adverse reaction: Tremor: 2
  Onset time: <30 s
  Righting reflex duration: 8.53 ± 1.52 min
  Sedation duration: 14.77 ± 3.50 min
Sprague-Dawley rats [3]; Rattus norvegicus
  ED50: 5.01 mg/kg
Sprague-Dawley rats [3]; [15]
  Minimal lethal dose: 22.6 mg/kg
Sprague-Dawley rats [3]; rats
  Approximate therapeutic index: 4.0
Sprague-Dawley rats [4]
  Adverse reaction: Convulsions: 0
  Adverse reaction: Cough, broken-winded: 0
  Adverse reaction: Euphoria: 0
  Adverse reaction: Slower breathing, Tetany convulsion: 2
  Adverse reaction: Systemic stiffness, Convulsions, Opisthotonus: 0
  Adverse reaction: Tongue stretching: 0
  Adverse reaction: Tremor: 0
  Adverse reaction: the four limbs rigidity: 2
  Onset time: <30 s
  Righting reflex duration: 8.53 ± 1.52 min
  Sedation duration: 14.77 ± 3.50 min
H295R cell line [5]
  Corticosterone as an indicator to determine the presence of inhibition: 0
  Cortisol as an indicator to determine the presence of inhibition: 0
H295R cell line [5]; [14]
  EC50: > 10 µM
H295R cell line [5]; read-out: EC50 (Cortisol)
  EC50: > 10 µM
[6]
  effect on the circulatory function (MAP, HR): significant inhibition on the circulatory system function
[7]
  inhibitory effect on the circulatory function (MAP, HR): significant inhibition of the circulatory function
[8]
  effect on the circulatory function (MAP, HR): significant inhibition on the circulatory system function
Sprague-Dawley rats [9]; Rattus norvegicus
  ED50: 5.51 mg/kg
Sprague-Dawley rats [9]; [15]
  Minimal lethal dose: 28 mg/kg
Sprague-Dawley rats [9]; rats
  Approximate therapeutic index: 5
Sprague-Dawley rats [10]; Rattus norvegicus
  ED50: 5.51 mg/kg
Sprague-Dawley rats [10]; [15]
  Minimal lethal dose: 28 mg/kg
Sprague-Dawley rats [10]; rats
  Approximate therapeutic index: 5
Sprague-Dawley rats [11]; Rattus norvegicus
  ED50: 5.01 mg/kg
Sprague-Dawley rats [11]; [15]
  Minimal lethal dose: 22.6 mg/kg
Sprague-Dawley rats [11]; rats
  Approximate therapeutic index: 4.0
[12]
  inhibitory effect on the circulatory function (MAP, HR): significant inhibition of the circulatory function
Sprague-Dawley rats [13]
  Onset time: 0.19 ± 0.03 min
  Righting reflex duration: 8.36 ± 2 min
Sprague-Dawley rats [13]; (animals affected/animals)
  Types and incidence of adverse reactions: Intermittent Tremor(6/8),; also recorded: Bucking (5/8),; also recorded: Tongue stretching(4/8),; also recorded: Forelimb rigidity (2/8),; also recorded: Hindlimb rigidity(2/8)
